Test results as given in publication PMC8129719 (CPT: Pharmacometrics & Systems Pharmacology, 2021).
“And” between values parts separate entries of the source, which are not always exact repeats. Identical values can stand only once. Counter-ions that a name gives are not always drawn. Like-named read-outs stand apart in the source and are kept apart here.

Experiments:
[1] = probenecid 500 mg 4 times a day; ref Willemin et al. (accepted for publication); cited from earlier work
[2] = assay type: in vivo, human; settings: for CL renal: female, human, plasma and urine, oral; for contribution of renal elimination to total clearance: from model CLr and CLnr; for CLr, IIV (SE%) / k syn, IIV (SE%): interindividual variability; for CLnr, population estimate (SE%): nonrenal clearance of biomarker; for V, population estimate (SE%): volume of distribution of biomarker; for k syn, population estimate (SE%): zero-order synthesis rate
[3] = probenecid 1000 mg single dose, 14 healthy volunteers, digitized data; cited from earlier work
[4] = Population PK model of probenecid plasma data; assay type: in vivo, human; settings: for CL, IIV (SE%) / V, IIV (SE%): interindividual variability

SMILES	fold change of plasma AUC0-24 h following probenecid [1]	CL renal [2]	contribution of renal elimination to total clearance [2]	CLr, IIV (SE%) [2]	k syn, IIV (SE%) [2]	CLr, IOV (SE%) ([2]; interoccasion variability)	CLnr, population estimate (SE%) [2]	V, population estimate (SE%) [2]	k syn, population estimate (SE%) [2]	k syn, IOV (SE%) ([2]; interoccasion variability between the two phases)	mean plasma AUC0-tlast ratio, observed [3]	ka, population estimate (SE%) ([4]; absorption rate constant)	CL, IIV (SE%) [4]	V, IIV (SE%) [4]	CL, IIV (SE%) ([4]; listed as probenecid)	V, IIV (SE%) ([4]; listed as probenecid)	V, population estimate (SE%) ([4]; probenecid one-compartment model)
C[C@H](CCC(=O)NCC(=O)O)[C@H]1CC[C@H]2[C@@H]3[C@H](O)C[C@@H]4C[C@H](OS(=O)(=O)O)CC[C@]4(C)[C@H]3CC[C@]12C [GCDCA-S, glycochenodeoxycholate sulfate]	1.9 fold																
COc1cc(CC(=O)O)ccc1O [HVA, homovanillic acid]	2.2 fold	340 mL/min	94%	23 (26) %	27 (19) %	5 (48) %	1.29 (69) L/h	105 (35) L	212 (16) µg/h								
Cc1ncc(CO)c(C(=O)O)c1O [PDA, Pyridoxic acid]	3.9 fold	253 mL/min	82%	27% and 27 (15) %	32% and 32 (34) %		3.23 (41) L/h	9.34 (56) L	58.6 (26) µg/h	22 (57) %	1.95						
CCCN(CCC)S(=O)(=O)c1ccc(C(=O)O)cc1 [Probenecid, probenecid]												0.74 (45) /h	23 (23) %	40 (29) %	23%	40%	15 (22) L
